Columns and labels:
physchem = conditions: octan-1-ol/water
in vitro = conditions: human, plasma

Row | SMILES | fraction unbound at 5 h (in vitro; PPB) | other results
1 | COc1cc(OC)c(S(=O)(=O)N(C)c2ccccc2)cc1NC(C)=O | 0.179 | logD (physchem; pH 7.4, LogD7.4): 1.1
2 | Cc1cnc(Nc2ccc(N3CCN(C)CC3)cc2)nc1Nc1cccc(S(=O)(=O)NC(C)(C)C)c1 | 0.0752 | logD (physchem; pH 7.4, LogD7.4): 2.84
3 | COc1cc2ncc(C(N)=O)c(Nc3ccccc3C)c2cc1OC | 0.0081 | logD (physchem; pH 7.4, LogD7.4): 3.4
4 | CC(=O)c1cn(Cc2ccccc2)c(=O)n(Cc2ccc(F)cc2)c1=O | 0.0245 | logD (physchem; pH 7.4, LogD7.4): 3.2
5 | CN(C)CCCN1c2ccccc2Sc2ccccc21 [PROMAZINE] | 0.101 | logD (physchem; pH 7.4, LogD7.4): 2.56
6 | c1ccc2[nH]c(CCCc3nc4ccccc4[nH]3)nc2c1 | 0.0031 | logD (physchem; pH 7.4, LogD7.4): 3.5
7 | CC(C)[C@H](NC(=O)C[C@H](NC(=O)/C=C/c1ccccc1)c1ccccc1)C(=O)[C@@H]1C(=O)NC(=O)[C@H]1C | 0.016 | logD (physchem; pH 7.4, LogD7.4): 1.91
8 | CC(C)Oc1cc(-n2cnc3cnc(N[C@@H](C)c4ncc(F)cn4)nc32)n[nH]1 | 0.309 | logD (physchem; pH 7.4, LogD7.4): 2.41
9 | CNC(=O)c1[nH]cnc1C(=O)Nc1ccc(OC)cc1 | 0.134 | logD (physchem; pH 7.4, LogD7.4): 2.2
10 | CC(=O)Nc1ccc2cnn(-c3cc(NC4CC4)n4ncc(C#N)c4n3)c2c1 | 0.0191 | logD (physchem; pH 7.4, LogD7.4): 3.44
11 | CNC1=Nc2ccc(Cl)cc2C(c2ccccc2)=[N+]([O-])C1 [CHLORDIAZEPOXIDE] |  | logD (physchem; pH 7.4): 2.41; fraction unbound at 5 h (in vitro): 0.0229
12 | CNC(=O)c1snnc1-c1ccccc1 | 0.563 | logD (physchem; pH 7.4, LogD7.4): 1.23
13 | Cc1c(OCC(F)(F)F)ccnc1C[S+]([O-])c1nc2ccccc2[nH]1 (centres undefined) [LANSOPRAZOLE] |  | logD (physchem; pH 7.4): 2.7; fraction unbound at 5 h (in vitro): 0.016
14 | CN(C)S(=O)(=O)c1ccc2c(c1)N(CCN1CCC(NCc3ccc4c(n3)NC(=O)CO4)CC1)C(=O)CO2 |  | logD (physchem; pH 7.4): 0.15; fraction unbound at 5 h (in vitro): 0.0928
15 | Cn1ncc2c(=O)[nH]c(-c3ccccc3)nc21 | 0.0676 | logD (physchem; pH 7.4, LogD7.4): 1.61
16 | COc1ccc2ncc(=O)n(CCN3CC[C@H](NCc4ccc5c(n4)NC(=O)CO5)[C@H](O)C3)c2c1 | 0.137 | logD (physchem; pH 7.4, LogD7.4): 0.39
17 | COc1ccc(NC(=O)c2ccnc(N)n2)cc1 | 0.289 | logD (physchem; pH 7.4, LogD7.4): 1.72
18 | O=C1COc2ccccc2N1CCN1CCC(NCc2cc3c(cn2)OCCO3)CC1 |  | logD (physchem; pH 7.4): 1.04; fraction unbound at 5 h (in vitro): 0.253
19 | CN[C@@H](C)C(=O)N[C@H](C(=O)N[C@H]1CCCN(CCc2ccccc2OC)C1)C(C)(C)C | 0.258 | logD (physchem; pH 7.4, LogD7.4): 1.61
20 | O=c1cc(O)oc2c1c(=O)n(-c1ccccc1)c1ccccc21 | 0.0183 | logD (physchem; pH 7.4, LogD7.4): 0.96
21 | NC(=O)c1cncc(-c2ccc([C@H]3CC[C@H](CC(=O)O)CC3)cc2)c1 | 0.0268 | logD (physchem; pH 7.4, LogD7.4): 0.22
22 | CC(=O)Nc1cnc2ccn(-c3cc(NC4CC4)n4ncc(C#N)c4n3)c2c1 | 0.0251 | logD (physchem; pH 7.4, LogD7.4): 2.69

Row | SMILES | fraction unbound at 5 h (in vitro; PPB) | other results
23 | C[C@H]1O[C@@H](n2cnc3c(N)nc(OCC4CC45CC5)nc32)[C@H](O)[C@H]1Cl (some centres undefined) | 0.0447 | logD (physchem; pH 7.4, LogD7.4): 3.68
24 | CC[C@@H](c1ccc(C(=O)O)c(Oc2cccc(Cl)c2)c1)N1CCC[C@H](n2cc(C)c(=O)[nH]c2=O)C1 | 0.0383 | logD (physchem; pH 7.4, LogD7.4): 0.22
25 | C[C@H](Nc1ncc(Cl)c(Nc2cc(N(C)C)[nH]n2)n1)c1ncc(F)cn1 | 0.105 | logD (physchem; pH 7.4, LogD7.4): 2.33
26 | N#Cc1cnn2c(N)cc(-c3ccc(F)cc3)nc12 | 0.0544 | logD (physchem; pH 7.4, LogD7.4): 2.23
27 | C[C@H](Nc1ncc(F)c(Nc2cc(C3CC3)[nH]n2)n1)c1ncc(F)cn1 | 0.224 | logD (physchem; pH 7.4, LogD7.4): 2.47
28 | Cc1c[nH]c(-c2cc(NC(=O)c3ccc(C(F)(F)F)nc3C)ccc2Cl)n1 | 0.0391 | logD (physchem; pH 7.4, LogD7.4): 3.3
29 | CNc1c(Br)cnc2[nH]c(-c3ccc(OCCN4CCOCC4)cc3)nc12 | 0.0149 | 
30 | Cc1cn([C@H]2CCCN(S(=O)(=O)c3cccc(Oc4ccccc4)c3)C2)c(=O)[nH]c1=O | 0.0262 | 
31 | CN[C@@H](C)C(=O)N[C@H](C(=O)N[C@H]1CCCN(CCc2ccc(F)cc2)C1)C(C)(C)C | 0.0784 | 
32 | O=C(NC[C@@H](O)CN1CCC(Oc2ccc(Cl)c(Cl)c2)CC1)c1c[nH]c(=O)c2cc(F)ccc12 | 0.0108 | 
33 | COc1cc(OC)c(S(=O)(=O)N2c3ccccc3CCC2C)cc1NC(=O)COCC(=O)O (centres undefined) | 0.266 | 
34 | CCOc1cc2ncc(C(N)=O)c(Nc3cccc(Cl)c3Cl)c2cc1N1CCN(C(C)C)CC1 | 0.0146 | 
35 | Cc1ncc(NC(=O)c2cc(NC(=O)c3cc(F)cc(C(F)(F)F)c3)ccc2Cl)s1 | 0.0035 | 
36 | COc1cnc(-c2ccccn2)nc1N1CCOCC1 | 0.339 | 
37 | COCCNC(=O)c1ccc(Nc2ncc3cc(-c4ccncc4C)ccc3n2)cc1 | 0.0139 | 
38 | CC(=O)Nc1cccc2c1c(Oc1ccc(Cl)cc1)c(C)n2CC(=O)O | 0.124 | 
39 | CC(=O)S[C@@H]1CC2=CC(=O)CC[C@]2(C)C2CC[C@@]3(C)C(CC[C@@]34CCC(=O)O4)C21 (some centres undefined) | 0.24 | 
40 | Cc1cnc(Nc2nc(N[C@@H](C)c3ncc(F)cn3)nc(N3CCOCC3)c2F)s1 | 0.069 | 
41 | COc1cccc(-c2cc3c(N[C@H]4CCCNC4)ncc(C(N)=O)c3s2)c1 | 0.0437 | 
42 | CC1=C(/C=C/C(C)=C/C=C/C(C)=C/C(=O)Nc2ccc(O)cc2)C(C)(C)CCC1 [FENRETINIDE] | 0.0019 | 
43 | COc1cccc(C(=O)N2C(C(=O)O)CSC2c2ccccc2Cl)c1 (centres undefined) | 0.0139 | 
44 | COc1ncc(-c2cccc3c2C[C@H](NC(=O)c2ccc(OCCC(F)(F)F)nc2)CO3)cn1 | 0.0133 | 

Row | SMILES | fraction unbound at 5 h (in vitro; PPB) | other results
45 | O=C(CCS(=O)(=O)c1ccc(Br)cc1)NCCc1ccccc1 | 0.04 | 
46 | COc1cc(OC)c(S(=O)(=O)NCc2ccccc2N2CCC(CO)CC2)cc1NC(=O)CCC(=O)O | 0.403 | 
47 | Cc1cn([C@H]2CCCN(Cc3ccc(C(=O)O)c(Oc4cccc(Cl)c4)c3)C2)c(=O)[nH]c1=O | 0.0268 | 
48 | COc1cc2ncn(-c3cc(OCc4ccccc4S(C)(=O)=O)c(C#N)s3)c2cc1OC [GSK-319347A] | 0.0111 | 
49 | O=C(O)COc1ccccc1N1CCC(CN2CCC(Oc3ccc(Cl)c(Cl)c3)CC2)CC1 | 0.0114 | 
50 | O=C(Cc1cccs1)Nc1ccon1 | 0.563 | 
51 | O=C(Nc1ccc(Cl)cc1)Nc1nnc(-c2ccncc2)s1 | 0.0017 | 
52 | CCc1[nH]c2nc(Sc3cnc4ccc[n+]([O-])c4c3)nc(N3CC[C@@H](N)C3)c2c1Cl | 0.204 | 
53 | CCOc1cc(CC(=O)N[C@@H](CC(C)C)c2ccccc2N2CCCCC2)ccc1C(=O)O [REPAGLINIDE] | 0.009 | 
54 | CCOc1cc2ncc(C(N)=O)c(Nc3ccc(F)cc3F)c2cc1N1CCCN(C)CC1 | 0.304 | 
55 | COc1ccc2ncc(=O)n(CCN3CC[C@@H](NCc4ccc5c(n4)NC(=O)CO5)[C@@H](OC)C3)c2c1 | 0.28 | 
56 | NC(=O)[C@H](Cc1ccccc1)NC(=O)OCc1ccccc1 | 0.19 | 
57 | C[C@H](CO)Nc1nc(SCc2cccc(F)c2F)nc2[nH]ncc12 | 0.035 | 
58 | CCOc1cc2ncc(C(N)=O)c(Nc3cccc(Cl)c3Cl)c2cc1N1CCN(C(C)=O)CC1 | 0.0968 | 
59 | O[C@H](c1cc(C(F)(F)F)nc2c(C(F)(F)F)cccc12)[C@@H]1CCCCN1 [(R,S)-MEFLOQUINE] | 0.0214 | 
60 | Cc1ncc(NC(=O)c2cc(NC(=O)c3cccc(Cl)c3)ccc2Cl)s1 | 0.002 | 
61 | COc1cc(OC)c(S(=O)(=O)NCc2ccccc2N2CCC(CO)CC2)cc1NC(C)=O | 0.126 | 
62 | CC(C)c1ccc(/C=N/NC(=O)c2ccc(O)cc2)cc1 | 0.0568 | 
63 | O=C(O)[C@@H](c1ccc(OCc2ccc3ccccc3n2)cc1)C1CCCC1 [VELIFLAPON] | 0.0015 | 
64 | O=C(NCC12CC3CC(CC(C3)C1)C2)c1cc(C(=O)N2CC3CNCC(C2)O3)ccc1Cl | 0.309 | 
65 | CCNC(=O)c1cc2c(-n3ccc(C(F)(F)F)n3)c(-c3cncc(-c4n[nH]c(=O)o4)c3)cnc2[nH]1 | 0.0437 | 
66 | NC1=NC(c2ccc(F)cc2)Cc2ccccc21 (centres undefined) | 0.36 | 

Row | SMILES | fraction unbound at 5 h (in vitro; PPB) | other results
67 | O=c1cc(N2CCOCC2)nc2n(Cc3cccc(F)c3)ccn12 | 0.22 | 
68 | COCCOc1cc2ncc(C(N)=O)c(Nc3cccc(Cl)c3F)c2cc1N1CCN(C)CC1 | 0.392 | 
69 | CC(C)C[C@H](NC(=O)[C@H](Cc1ccccc1)NC(=O)c1cnccn1)B(O)O [BORTEZOMIB] | 0.132 | 
70 | N#Cc1c(-c2ccc(-c3cccnc3)cc2)nc2ccncc2c1O | 0.007 | 
71 | Cc1csc(N)c1C(N)=O | 0.324 | 
72 | COc1ccc2ncc(=O)n(CCN3CC[C@@H](NCc4cc5c(cn4)OCCO5)[C@H](O)C3)c2c1 | 0.179 | 
73 | NC(=O)c1cccc2c3c([nH]c12)CCCC3 | 0.28 | 
74 | COc1cc(OC)c(S(=O)(=O)N2c3ccccc3CCC2C)cc1NC(=O)CSCC(=O)O (centres undefined) | 0.126 | 
75 | Cc1ccc(/C(=C\CN2CCCC2)c2ccccn2)cc1 [TRIPROLIDINE] | 0.645 | 
76 | O=C(CCS(=O)(=O)c1ccc(Br)cc1)Nc1ccc2c(c1)OCO2 |  | fraction unbound at 5 h (in vitro): 0.0119
77 | CCOc1cc2ncc(C(N)=O)c(Nc3cc(F)ccc3F)c2cc1N1CCN(C)CC1 | 0.0736 | 
78 | N#Cc1c(-c2ccc(-c3ccccc3O)cc2)nc2ccncc2c1O | 0.0026 | 
79 | CCNC(=O)c1cc2c(-n3ccc(C(F)(F)F)n3)c(-c3cncc(C(=O)O)c3)cnc2[nH]1 | 0.117 | 
80 | Cc1cccc(Oc2cc(S(=O)(=O)N3CCC[C@H](n4cc(C)c(=O)[nH]c4=O)C3)ccc2C(=O)O)c1 | 0.0568 | 
81 | O=C(O)/C=C/c1cccc(-c2cnc3[nH]ccc3c2)c1 | 0.0219 | 
82 | CC(C(=O)OC1CC[N+](C)(C)CC1)(c1ccccc1)N1CCCCC1 (centres undefined) | 0.78 | 
83 | CN(Cc1cnc2nc(N)nc(N)c2n1)c1ccc(C(=O)N[C@@H](CCC(=O)O)C(=O)O)cc1 [METHOTREXATE] | 0.535 | 
84 | CCNC(=O)c1cc2c(-n3ccc(C(F)(F)F)n3)c(-c3cncc(C(=O)NC)c3)cnc2[nH]1 | 0.148 | 
85 | CN1CCN(c2ccc3ncc(C(N)=O)c(Nc4cccc(Cl)c4Cl)c3c2)CC1 | 0.0457 | 
86 | COc1ccc(-c2cc(O)nc(N)n2)cc1C#N | 0.126 | 

From ChEMBL document CHEMBL3301361, “Experimental in vitro DMPK and physicochemical data on a set of publicly disclosed compounds”
